Measured values as given in publication PMC10778976, “BAY-3827 and SBI-0206965: Potent AMPK Inhibitors That Paradoxically Increase Thr172 Phosphorylation” (International Journal of Molecular Sciences, 2023).

Legend:
[1] = system: phosphorylation of Ser29 on ATG14, an established target for ULK1, in U2OS cells; assay: ATG14 phosphorylation (ULK1 target) in U2OS cells (Western blot); assay type: cell-based, human; settings: read-out: IC50, inhibition of ATG14 (Ser29) phosphorylation
Method: T-Rex U2OS cells carrying a Flp Recombinase Target (FRT) site were generated as described previously and grown in Dulbecco’s Modified Eagle’s Medium (DMEM) supplemented with 10% (v/v) FBS and 1% (v/v) penicillin/streptomycin.
Cells were lysed rapidly in situ on culture plates using ice-cold lysis medium containing phosphatase inhibitors, as described previously.
SDS-PAGE was performed using precast NuPAGE Tris-acetate 3–8% gradient polyacrylamide gels in Tris-acetate running buffer when analyzing ACC, GBF1, or Raptor, or NuPAGE Bis-Tris 4–12% gradient polyacrylamide gels in the MOPS buffer system (ThermoFisher Scientific, Waltham, MA, USA) for other proteins (unless stated otherwise). Proteins were transferred to nitrocellulose membranes using the iBlot 2 system (ThermoFisher Scientific). Membranes were enhanced if necessary using SuperSignal Western Blot Enhancer (ThermoFisher Scientific), then blocked for 1 h in Li-Cor Odyssey blocking buffer. The membranes were probed with the appropriate primary antibody (0.1–1 mg/mL) overnight at 4 °C. […] Protein concentrations were determined by Coomassie Blue binding with bovine serum albumin as a standard. The cellular levels of AMP and ATP were determined via direct perchloric acid extraction from cells, with LC:MS used to estimate the levels of each nucleotide.

[2] = target: T1, LKB1 (human LKB1:STRADα:MO25α complex) (Homo sapiens, UniProt Q15831); settings: single fixed inhibitor concentration (0.25 µM); cited from earlier work
T1 construct: made in house
T1 sequence (Q15831 1-433): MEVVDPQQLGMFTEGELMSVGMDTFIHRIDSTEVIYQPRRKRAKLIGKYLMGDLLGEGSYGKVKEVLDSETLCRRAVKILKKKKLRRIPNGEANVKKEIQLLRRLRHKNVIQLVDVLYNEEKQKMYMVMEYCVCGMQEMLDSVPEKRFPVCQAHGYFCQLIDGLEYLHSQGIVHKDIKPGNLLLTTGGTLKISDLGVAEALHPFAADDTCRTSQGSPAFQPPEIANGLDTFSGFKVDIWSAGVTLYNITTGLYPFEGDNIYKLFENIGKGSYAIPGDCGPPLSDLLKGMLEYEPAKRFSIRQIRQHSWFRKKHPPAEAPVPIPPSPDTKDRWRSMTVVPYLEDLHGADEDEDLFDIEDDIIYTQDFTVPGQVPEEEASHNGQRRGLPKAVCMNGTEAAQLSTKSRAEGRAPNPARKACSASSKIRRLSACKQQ
T1 sequence (Q7RTN6 1-431 partner): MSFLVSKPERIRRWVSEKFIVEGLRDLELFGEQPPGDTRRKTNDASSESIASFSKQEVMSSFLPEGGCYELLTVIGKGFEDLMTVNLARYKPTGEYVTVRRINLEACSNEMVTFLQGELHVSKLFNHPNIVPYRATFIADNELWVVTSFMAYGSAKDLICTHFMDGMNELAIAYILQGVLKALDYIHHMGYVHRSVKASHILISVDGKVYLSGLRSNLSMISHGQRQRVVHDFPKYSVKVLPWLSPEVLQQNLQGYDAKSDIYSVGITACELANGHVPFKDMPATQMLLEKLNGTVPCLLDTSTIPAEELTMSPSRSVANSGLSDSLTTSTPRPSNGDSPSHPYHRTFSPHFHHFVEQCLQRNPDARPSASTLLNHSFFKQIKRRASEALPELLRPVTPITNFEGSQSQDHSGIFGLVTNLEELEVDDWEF
T1 sequence (Q9Y376 1-341 partner): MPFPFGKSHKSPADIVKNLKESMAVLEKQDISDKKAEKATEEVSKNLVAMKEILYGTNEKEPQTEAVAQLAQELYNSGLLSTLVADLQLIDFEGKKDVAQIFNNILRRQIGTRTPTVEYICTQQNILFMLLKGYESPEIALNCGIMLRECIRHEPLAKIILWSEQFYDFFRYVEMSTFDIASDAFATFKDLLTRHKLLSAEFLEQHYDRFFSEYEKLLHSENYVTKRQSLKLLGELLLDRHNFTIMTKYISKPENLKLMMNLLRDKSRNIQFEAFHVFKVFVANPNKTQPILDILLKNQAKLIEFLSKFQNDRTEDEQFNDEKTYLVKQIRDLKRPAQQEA

human α1β1γ1 complex = human α1β1γ1 complex (Homo sapiens, UniProt Q13131); settings: previous estimate; read-out: IC50, inhibition of α1β1γ1; cited from earlier work
human α1β1γ1 complex, sequence (Q13131 whole entry): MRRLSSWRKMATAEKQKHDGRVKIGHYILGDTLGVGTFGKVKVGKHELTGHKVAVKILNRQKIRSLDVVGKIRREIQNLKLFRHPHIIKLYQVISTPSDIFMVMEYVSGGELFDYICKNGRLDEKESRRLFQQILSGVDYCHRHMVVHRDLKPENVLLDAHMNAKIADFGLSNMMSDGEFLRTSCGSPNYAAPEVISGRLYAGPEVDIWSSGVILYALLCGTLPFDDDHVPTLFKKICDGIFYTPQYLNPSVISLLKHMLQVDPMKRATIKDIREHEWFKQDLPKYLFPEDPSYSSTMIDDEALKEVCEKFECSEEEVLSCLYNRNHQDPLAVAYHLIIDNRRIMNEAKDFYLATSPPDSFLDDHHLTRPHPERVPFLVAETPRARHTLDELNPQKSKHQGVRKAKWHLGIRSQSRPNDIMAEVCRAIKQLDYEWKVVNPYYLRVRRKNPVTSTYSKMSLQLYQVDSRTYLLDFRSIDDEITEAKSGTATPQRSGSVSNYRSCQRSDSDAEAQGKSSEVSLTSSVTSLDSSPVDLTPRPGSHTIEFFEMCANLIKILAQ
human α1β1γ1 complex, sequence (P54619 whole entry, further chain): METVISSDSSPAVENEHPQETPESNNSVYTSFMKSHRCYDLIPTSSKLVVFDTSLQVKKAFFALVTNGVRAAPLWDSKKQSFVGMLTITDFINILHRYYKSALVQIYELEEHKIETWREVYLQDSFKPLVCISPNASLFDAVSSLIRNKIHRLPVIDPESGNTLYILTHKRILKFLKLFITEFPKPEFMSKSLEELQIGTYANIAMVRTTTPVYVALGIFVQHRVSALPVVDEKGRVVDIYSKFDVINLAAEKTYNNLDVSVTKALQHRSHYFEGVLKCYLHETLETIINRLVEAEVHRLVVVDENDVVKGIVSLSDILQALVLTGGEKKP
human α1β1γ1 complex, sequence (Q9Y478 2-270, further chain): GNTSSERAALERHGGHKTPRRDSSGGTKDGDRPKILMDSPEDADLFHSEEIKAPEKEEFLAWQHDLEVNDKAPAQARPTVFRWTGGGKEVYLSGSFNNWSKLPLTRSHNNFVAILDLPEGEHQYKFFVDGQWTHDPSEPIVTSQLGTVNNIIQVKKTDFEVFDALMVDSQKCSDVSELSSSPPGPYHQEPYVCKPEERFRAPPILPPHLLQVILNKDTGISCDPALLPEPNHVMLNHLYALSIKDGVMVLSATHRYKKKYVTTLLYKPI

SMILES: CNC(=O)c1ccccc1Oc1nc(Nc2cc(OC)c(OC)c(OC)c2)ncc1Br [SBI-0206965]
- IC50 [1]: 67 µM
- inhibition of LKB1 [2]: did not inhibit
- IC50 (human α1β1γ1 complex): 0.3 µM
